The source of these data is EPA's ToxValDB 9.5 (doi:10.2903/j.efsa.2006.53r).

For data set [1], the system named is Rattus norvegicus.
Data set [2] relates to Canidae. To be noted: Dog Other, organ weight.
The test system of data set [3] is Tagia sp. Conditions: acute; mortality.
For data set [4], the system named is Apis mellifera. Conditions: acute, mortality.
In data set [5] the test system is Daphnia magna.
In data set [6] the test system is Colinus virginianus. To be noted: for LD50: acute, oral, mortality.
The test system of data set [7] is Aphidius rhopalosiphi. Conditions: not reported; mortality.
Data set [8] concerns Oncorhynchus mykiss.

In brackets after ≈: the same amount, converted by molar mass.

A word on the NOAEL: it is the highest dose or exposure tested at which no adverse effect was seen. Consider `COCC(C)N(C(=O)CCl)c1c(C)csc1C` (stereo unspecified) [Dimethenamid], for which the LD50 in data set [1] (acute, oral, mortality) was 397 mg/kg; in data set [4] (duration: 48 hours, dermal), 94 µg/piece; in data set [4] (oral, unspecified), 1000 µg/piece; in data set [6] (diet), 1200 mg/kg; in data set [6], 1910 mg/kg. In addition, the NOAEL in data set [1] (reproduction developmental, growth) is 33.3 mg/kg-day; in data set [1] (short-term, duration: 4 days, oral, gavage, organ weight) it was 25 mg/kg-day; in data set [2] (chronic, duration: 1 years) it was 2 mg/kg-day; in data set [2] (subchronic, duration: 90 days) it was 4.3 mg/kg-day; in data set [6] (reproduction developmental), 114 mg/kg-day. Also, the LC50 came to 294 mg/kg in data set [3]; 12 mg/L (≈ 43.5 µM) in data set [5] (acute, duration: 48 hours, mortality); 2.6 mg/L (≈ 9.43 µM) in data set [8] (acute, duration: 96 hours, mortality). For the same compound, the NOEC was 0.68 mg/L in data set [5] (chronic/long-term, duration: 21 days) and 0.12 mg/L in data set [8] (chronic/long-term, duration: 90 days, growth). In data set [7], this compound yielded an LEL of 1010 g/ha.
